{"source": "the supplement of paper PMC10307832", "experiment_in_all_cases": "relative viability (nuclei count vs DMSO), 5 days (fraction); higher = more cells survive", "key": {"[1]": {"compound": "CN1CCC(CC1)OC2=CC(=C(C=C2)NC3=NC=C4C(=N3)N(C(=O)N4C)C5CCCC5)OC [AZ3146]", "procedure,_shortened": "(§1)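 Acceptance criteria were a control CV below 25% and at least one doubling per plate. Lung cancer cell lines in 1536-well plates got five library-drug doses (not always all listed) √10 apart by pinning and were left 5 days with no medium change. Viability divides treated-well nuclei by vehicle-well nuclei and is the median across plates. Nuclei were counted by MetaXpress from 4× Hoechst images.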"}, "[2]": {"compound": "CCOC(=O)CCNc1cc(N2CCc3ccccc3CC2)nc(-c2ccccn2)n1 [GSK-J4]", "procedure,_shortened": "as §1"}, "[3]": {"compound": "CCOC(=O)CCNc1cc(N2CCc3ccccc3CC2)nc(-c2ccccn2)n1 [GSK-J4] + Nc1ncn([C@H]2C[C@H](O)[C@@H](CO)O2)c(=O)n1 [Decitabine] (partner 2 µM)", "procedure,_shortened": "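Lung cancer cell lines were pin-tool dosed in 1536-well plates on the day after seeding, with either a lone drug or a fixed anchor-drug dose plus five library-drug doses (not always all listed) in √10 steps. Nuclei were counted on 4× images after 5 days. Relative viability is the ratio of treated-well to vehicle-well nuclei counts, with each value a median of duplicate plates.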"}}, "data": [{"cell line": "UMC-11", "values": [{"measurement": "relative viability", "setting": "[1]; 0.08 µM", "value": 0.863}, {"measurement": "relative viability", "setting": "[1]; 0.253 µM", "value": 0.985}, {"measurement": "relative viability", "setting": "[1]; 0.8 µM", "value": 0.971}, {"measurement": "relative viability", "setting": "[1]; 2.53 µM", "value": 0.898}, {"measurement": "relative viability", "setting": "[1]; 8 µM", "value": 0.624}, {"measurement": "relative viability", "setting": "[2]; 0.5 µM", "value": 0.96}, {"measurement": "relative viability", "setting": "[2]; 1.581 µM", "value": 0.735}, {"measurement": "relative viability", "setting": "[2]; 5 µM", "value": 0.741}, {"measurement": "relative viability", "setting": "[2]; 15.81 µM", "value": 1.01}, {"measurement": "relative viability", "setting": "[2]; 50 µM", "value": 0.551}, {"measurement": "relative viability", "setting": "[3]; first compound 0.5 µM", "value": 0.93}, {"measurement": "relative viability", "setting": "[3]; first compound 1.581 µM", "value": 0.642}, {"measurement": "relative viability", "setting": "[3]; first compound 15.81 µM", "value": 0.582}, {"measurement": "relative viability", "setting": "[3]; first compound 50 µM", "value": 0.343}]}]}
